Laboratory results published in patent publication US7022718B2, “Pyridine and pyrimidine derivatives” (Hoffmann-La Roche Inc., priority 2002, dated 2006).

Each compound was assayed against human DPP-IV (Homo sapiens, UniProt P27487) (assay: DPP-IV activity assay (fluorometric / colorimetric), IC50 determination). Details: not given.
human DPP-IV, sequence (P27487 31-766): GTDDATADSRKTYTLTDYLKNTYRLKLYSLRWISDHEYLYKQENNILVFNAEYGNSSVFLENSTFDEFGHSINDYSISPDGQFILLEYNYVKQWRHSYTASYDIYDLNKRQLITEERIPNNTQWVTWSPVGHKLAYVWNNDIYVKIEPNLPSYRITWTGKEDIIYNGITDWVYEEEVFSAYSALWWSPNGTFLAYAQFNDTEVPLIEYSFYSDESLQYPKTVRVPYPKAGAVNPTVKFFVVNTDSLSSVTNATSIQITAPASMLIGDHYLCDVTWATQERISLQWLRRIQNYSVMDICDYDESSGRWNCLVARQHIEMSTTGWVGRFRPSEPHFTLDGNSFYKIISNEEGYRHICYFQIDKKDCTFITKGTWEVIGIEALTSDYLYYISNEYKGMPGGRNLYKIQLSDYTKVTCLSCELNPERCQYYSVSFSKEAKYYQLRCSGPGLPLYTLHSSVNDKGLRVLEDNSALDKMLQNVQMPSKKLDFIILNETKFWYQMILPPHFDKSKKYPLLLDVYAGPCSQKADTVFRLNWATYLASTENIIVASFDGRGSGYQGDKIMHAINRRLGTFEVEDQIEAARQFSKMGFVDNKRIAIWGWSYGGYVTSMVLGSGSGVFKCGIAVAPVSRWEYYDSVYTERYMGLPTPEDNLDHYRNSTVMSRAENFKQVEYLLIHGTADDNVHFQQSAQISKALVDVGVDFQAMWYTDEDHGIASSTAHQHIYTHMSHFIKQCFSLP

SMILES	IC50
CNCc1c(N)nc(-c2ccccc2)nc1-c1ccc(Cl)cc1Cl [Example 76, 6-(2,4-Dichloro-phenyl)-5-methylaminomethyl-2-phenyl-pyrimidin-4-ylamine]	391 nM
CSc1nc(N)c(CN)c(-c2ccc(Cl)cc2Cl)n1 [Example 23, 5-Aminomethyl-6-(2,4-dichloro-phenyl)-2-methylsulfanyl-pyrimidin-4-ylamine]	13 nM
Cc1ccc(-c2nc(-c3ccccc3)nc(N)c2CN)c(C)c1 [Example 11, 5-Aminomethyl-6-(2,4-dimethyl-phenyl)-2-phenyl-pyrimidin-4-ylamine]	172 nM
CCc1ccc(-c2nc(-c3ccccc3)nc(N)c2CN)cc1 [Example 43, 5-Aminomethyl-6-(4-ethyl-phenyl)-2-phenyl-pyrimidin-4-ylamine]	389 nM

Second part, the compound after the results:

IC50	SMILES
873 nM	Cc1c(-c2ccccc2)nc(N)c(CN)c1-c1ccc(Cl)cc1Cl [Example 79, 3-Aminomethyl-4-(2,4-dichloro-phenyl)-5-methyl-6-phenyl-pyridin-2-ylamine]
3 nM	NCc1c(N)nc(N2CCCCCC2)nc1-c1ccc(Cl)cc1Cl [Example 20, 5-Aminomethyl-2-azepan-1-yl-6-(2,4-dichloro-phenyl)-pyrimidin-4-ylamine]
0.7 nM	NCc1c(N)nc(-c2cc3ccccc3o2)nc1-c1ccc(Cl)cc1Cl [Example 16, 5-Aminomethyl-2-benzofuran-2-yl-6-(2,4-dichloro-phenyl)-pyrimidin-4-ylamine]

Same assay, conditions: natural human DPP-IV from human plasma pool or recombinant human DPP-IV; 37° C., pH 7.8

IC50	SMILES
0.2 nM	NCc1c(N)nc(-c2cccc(F)c2)nc1-c1ccc(Cl)cc1Cl [Example 13, 5-Aminomethyl-6-(2,4-dichloro-phenyl)-2-(3-fluoro-phenyl)-pyrimidin-4-ylamine]
